According to US20110251379A1, “COMPOUNDS USEFUL FOR TREATING NEURODEGENERATIVE DISORDERS” (Satori Pharmaceuticals, Inc., priority 2010, published 2011):
Read-outs that look alike come from different tables or passages of the source.

Experiments:
Assay type in all cases: cell-based
Aβ-40 = test: MSD Human (6E10) Ab 3-PLEX elisa, conditioned media of 2B7 cells: Aβ-40; settings: for IC50: Aβ-40 (superscript b)
Outline: (§1)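 Cells grown to confluence, washed, then exposed to diluted compound (1% DMSO) for 5 hours at 37° C. Collected media mixed 1:1 with blocking buffer and added to capture plates with detection antibody. After overnight incubation at 4 degrees C, wells washed and read on MSD imager.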

Aβ-42 = test: MSD Human (6E10) Ab 3-PLEX elisa, conditioned media of 2B7 cells: Aβ-42; settings: for IC50: Aβ-42 (superscript c)
Outline: as §1

Aβ-38 = test: MSD Human (6E10) Ab 3-PLEX elisa, conditioned media of 2B7 cells: Aβ-38
Outline: as §1

[1] = Homo sapiens, read-out: 50% reduction value
[2] = Homo sapiens, Aβ-38 (superscript a), read-out: 50% reduction value
[3] = Homo sapiens, read-out: IC50 range
[4] = Homo sapiens, Aβ-38 (superscript a), read-out: IC50 range
[5] = Aβ-38 (superscript a), read-out: 50% reduction value

Compound | IC50 (Aβ-40; [1]) [nM] | IC50 (Aβ-42; [1]) [nM] | IC50 (Aβ-38; [2]) [nM] | IC50 (Aβ-42; [3]) [nM] | other results
CC(=O)OC(C)(C)C1C[C@@H](C)[C@H]2C(O1)[C@H](O)[C@@]1(C)C3CC[C@H]4C(C)(C)[C@@H](O)CC[C@@]45C[C@@]35CC[C@]21C (stereo partly shown) | > 10000 | > 10000 | 1000 to 10000 | – | –
CC(=O)OCC1CC(C)C2C(O1)C(O)C1(C)C3CCC4C(C)(C)C(OC5OCC(O)C(O)C5O)CCC45CC35CCC21C (stereo not shown) [drawing 1206] | – | – | – | – | % Inh. (range) (Aβ-40; Aβ-40, 20 μM): E^a (20 μM) E^b (20 μM) E^c (20 μM) (% inhibition of 25-75%); % Inh. (range) (Aβ-42; Aβ-42, 20 μM): E^a (20 μM) E^b (20 μM) E^c (20 μM) (% inhibition of 25-75%); % Inh. (range) (Aβ-38; Aβ-38, 20 μM): E^a (20 μM) E^b (20 μM) E^c (20 μM) (% inhibition of 25-75%)
C[C@@H]1CC(CCC(N)=O)OC2C1[C@@]1(C)CC[C@@]34C[C@@]35CC[C@H](OC3CN(C(=O)CC6CC6)CCO3)C(C)(C)[C@@H]5CC[C@H]4[C@]1(C)[C@H]2O (stereo partly shown) | – | – | – | 1000 to 10000 | IC50 (Aβ-40; [3]): > 10000 nM; IC50 (Aβ-38; [4]): 1000 to 10000 nM
CC(C)[C@@H](OC(=O)N1CCC1)C1C[C@@H](C)[C@H]2C(O1)[C@H](O)[C@@]1(C)C3CC[C@H]4C(C)(C)C(OC(=O)N5CCn6ccnc6C5)CC[C@@]45C[C@@]35CC[C@]21C (stereo partly shown) | > 10000 | < 1000 | < 1000 | – | –
CO[C@@H](C1C[C@@H](C)[C@H]2C(O1)[C@H](O)[C@@]1(C)C3CC[C@H]4C(C)(C)C(OC(=O)N5CCC5)CC[C@@]45C[C@@]35CC[C@]21C)C(C)(C)O (stereo partly shown) | > 10000 | 1000 to 10000 | 1000 to 10000 | – | –
CCOCC1C[C@@H](C)[C@H]2C(O1)[C@H](O)[C@@]1(C)C3CC[C@H]4C(C)(C)C(O[C@H]5CN(C6COC6)CCO5)CC[C@@]45C[C@@]35CC[C@]21C (stereo partly shown) | – | – | – | – | inhibition at 20 µM (Aβ-40; Homo sapiens, Aβ-40, 20 μM): < 75%; inhibition at 20 µM (Aβ-42; Homo sapiens, Aβ-42, 20 μM): < 25%; IC50 (Aβ-38; [4]): 1000 to 10000 nM; inhibition at 20 µM (Aβ-38; Homo sapiens, Aβ-38, 20 μM): 25 to 75%
CC(C)[C@@H](OC(=O)N1CCC1)C1C[C@@H](C)[C@H]2C(O1)[C@H](O)[C@@]1(C)C3CC[C@H]4C(C)(C)C(OC(=O)N5CC(C(=O)O)C5)CC[C@@]45C[C@@]35CC[C@]21C (stereo partly shown) | 1000 to 10000 | < 1000 | < 1000 | – | –
CO[C@@H](C1C[C@@H](C)[C@H]2C(O1)[C@H](O)[C@@]1(C)C3CC[C@H]4C(C)(C)C(OC(=O)NC5COC5)CC[C@@]45C[C@@]35CC[C@]21C)C(C)(C)O (stereo partly shown) | – | < 1000 | < 1000 | < 1000 | inhibition at 20 µM (Aβ-40; Homo sapiens, Aβ-40, 20 μM): 25 to 75%
CCC(=O)O[C@@H]([C@H]1C[C@@H](C)C2C(O1)[C@H](O)[C@@]1(C)[C@@H]3CC[C@H]4C(C)(C)[C@@H](O)CC[C@@]45C[C@@]35CC[C@]21C)C(C)(C)O (stereo partly shown) [drawing 1197] | > 10000 | > 10000 | > 10000 | – | –
CCO[C@H](C(C)C)C1C[C@@H](C)[C@H]2C(O1)[C@H](O)[C@@]1(C)[C@@H]3CC[C@H]4C(C)(C)C(O[C@H]5CNCCO5)CC[C@@]45C[C@@]35CC[C@]21C (stereo partly shown) | 1000 to 10000 | 1000 to 10000 | 1000 to 10000 | 1000 to 10000 | IC50 (Aβ-40; [3]): 1000 to 10000 nM
CC1CC(CO)OC2C1C1(C)CCC34CC35CCC(OC3OCC(O)C(O)C3O)C(C)(C)C5CCC4C1(C)C2O (stereo not shown) [drawing 1203] | – | – | – | – | % Inh. (range) (Aβ-40; Aβ-40, 100 μM): E^a (100 μM) E^b (100 μM) (% inhibition of 25-75%); IC50 (Aβ-42; read-out: IC50 range): > 10000 nM; % Inh. (range) (Aβ-38; Aβ-38, 100 μM): E^a (100 μM) E^b (100 μM) (% inhibition of 25-75%)
CC1CC(C(OC(=O)N(C)C)C(C)(C)O)OC2C1C1(C)CCC34CC35CCC(O)C(C)(C)C5CCC4C1(C)C2O (stereo not shown) [drawing 1217] | – | – | – | – | % Inh. (range) (Aβ-40; Aβ-40, 20 μM): E^b (20 μM) E^c (20 μM) (% inhibition of 25-75%); % Inh. (range) (Aβ-42; Aβ-42, 20 μM): E^b (20 μM) E^c (20 μM) (% inhibition of 25-75%); IC50 (Aβ-38; [5]): 1000 to 10000 nM
CCO[C@@H](C1C[C@@H](C)[C@H]2C(O1)[C@H](O)[C@@]1(C)C3CC[C@H]4C(C)(C)C(OC(N)=O)CC[C@@]45C[C@@]35CC[C@]21C)C(C)(C)O (stereo partly shown) | 1000 to 10000 | < 1000 | < 1000 | < 1000 | –
CC1CC(C(OC(=O)C2CCC2)C(C)(C)O)OC2C1C1(C)CCC34CC35CCC(O)C(C)(C)C5CCC4C1(C)C2O (stereo not shown) [drawing 1216] | – | – | – | – | IC50 (Aβ-40; read-out: 50% reduction value): 1000 to 10000 nM; IC50 (Aβ-42; read-out: 50% reduction value): < 1000 nM; IC50 (Aβ-38; [5]): 1000 to 10000 nM
C=C(C)CO[C@@H](C1C[C@@H](C)[C@H]2C(O1)[C@H](O)[C@@]1(C)C3CC[C@H]4C(C)(C)C(O[C@H]5CN(C6COC6)CCO5)CC[C@@]45C[C@@]35CC[C@]21C)C(C)(C)O (stereo partly shown) | 1000 to 10000 | < 1000 | < 1000 | < 1000 | IC50 (Aβ-38; [4]): < 1000 nM
CC(C)CC(=O)OC(C1CC(C)C2C(O1)C(O)C1(C)C3CCC4C(C)(C)C(OC5CN(C6COC6)CCO5)CCC45CC35CCC21C)C(C)(C)O (stereo not shown) | – | – | – | – | IC50 (Aβ-40; read-out: 50% reduction value): 1000 to 10000 nM; IC50 (Aβ-40; read-out: IC50 range): 1000 to 10000 nM; IC50 (Aβ-42; read-out: 50% reduction value): 1000 to 10000 nM; IC50 (Aβ-42; read-out: IC50 range): 1000 to 10000 nM; IC50 range (nM) (Aβ-38; Aβ-38 (superscript a)): A- B; IC50 (Aβ-38; [5]): 1000 to 10000 nM
